Data published in patent EP4011354A1, “NEW COSMETICS SOLVENTS BASED ON TWO DIFFERENT COMPONENTS” (priority 2020, dated 2022).
In brackets after ≈: the same amount, converted by molar mass. Where two headings read alike, the source gives them in different places.

Tests used:
[1] = Liberation of actives and dermal penetration (pig-skin penetration test); conditions: 0,5% solution in betaine : malic acid (1:1 + 20% water; NADES)
Procedure: Actives liberation and dermal penetration behavior were evaluated for a 0,5% caffeine solution in an inventive eutectic solvent, betaine : malic acid (1:1 + 20% water; NADES).

[2] = Solubility of actives in water and in eutectic solvents; assay type: physicochemical; conditions: for solubility: water
Excerpt: Following is shown some examples for actives solubilization: • Dihydromyricetin • ∘ Solubility in Water 0.09% wt. • ∘ Solubility in Betaine:Urea 2:3 > 0.5% wt • ∘ Solubility in Betaine:Glucose 1:1 > 0.5% wt • ∘ Solubility in Betaine:Malic Acid 1:1 > 0.5% wt • ∘ Solubility in Proline:Sorbitol 1:1 > 0.5% wt • ∘ • Folic Acid • ∘ Solubility in Water 0.00016% wt. • ∘ Solubility in Betaine:Glycerol 1:3 > 1% wt • Thiamidol • ∘ Solubility in Water 0.017% wt. • ∘ Solubility in Betaine:Glycerol 1:3 > 2% wt

[3] = In vivo sweat reduction test; conditions: Betaine-Glycerine (molar ratios 1:3), 10,5 wt.% calcium lactate, 37,5 wt.% water (figure 2)
[4] = Stability of 5 % vitamin C solutions in eutectic solvents versus water; assay type: physicochemical; conditions: 40 degrees, after 16 weeks

Cn1c(=O)c2c(ncn2C)n(C)c1=O [caffeine]
dermal absorption ([1]; compared to the water solution): lower
liberation over time ([1]; compared to the water solution (figure 4)): surprisingly lower

O=C1c2c(O)cc(O)cc2O[C@H](c2cc(O)c(O)c(O)c2)[C@H]1O [Dihydromyricetin]
Solubility in Betaine:Glucose 1:1 [2]: > 0.5 % wt
Solubility in Betaine:Malic Acid 1:1 [2]: > 0.5 % wt
Solubility in Betaine:Urea 2:3 [2]: > 0.5 % wt
Solubility in Proline:Sorbitol 1:1 [2]: > 0.5 % wt
solubility [2]: 900 µg/mL (≈ 2810 µM)

Nc1nc2ncc(CNc3ccc(C(=O)N[C@@H](CCC(=O)O)C(=O)O)cc3)nc2c(=O)[nH]1 [Folic Acid]
Solubility in Betaine:Glycerol 1:3 [2]: > 1 % wt
solubility ([2]; read-out: Solubility in Water): 1.6 µg/mL (≈ 3.62 µM)

CC(C)C(=O)Nc1nc(-c2ccc(O)cc2O)cs1 [Thiamidol, Isobutylamido Thiazolyl Resorcinol]
Solubility in Betaine:Glycerol 1:3 [2]: > 2 % wt
solubility ([2]; read-out: Solubility in Water): 170 µg/mL (≈ 611 µM)

CC(O)C(=O)O (centres unmarked) [calcium lactate]
sweat reduction [3]: sweat reduction

O=C1O[C@H]([C@@H](O)CO)C(O)=C1O [vitamin C, ascorbic acid]
remaining at 2688 h ([4]; in the eutectic solvents (table 1, B-F), read-out: active still intact): ≤ 82%
remaining at 2688 h ([4]; water, aqueous solution, read-out: initial vitamin C still measurable): 10%
